“Also recorded” adds a separate entry of the source.
Legend:
isolated optic nerve = assay: Simulated ischemia (OGD) in isolated optic nerves, LDH release; set-up: species or system Sprague Dawley rats; details: 1 h ischemia with iodoacetate + 2 h reperfusion; MTA 100-300 μM
Protocol: Ischemic damage was induced by substituting […] and adding 1 mM of the glyocolytic blocker iodoacetate (1 mM) for 1 h followed by 2 h of reperfusion in […] aCSF. Optic nerves during ischemia and reperfusion were incubated with vehicle, for controls, and with MTA or glutamate receptor antagonists, and subsequently processed for LDH release assay. The results are the mean±SEM of at least three different experiments performed in duplicate.
Cell viability in oligodendrocyte cultures was assayed after 24 h of exposure to MTA (1 μM to 3 mM) calcein-AM assays respectively followed by fluorimetry measurements (Synergy-HT). Oligodendrocyte protection from excitotoxicity and optic nerve damage after ischemia (1 hour+2 hours reperfusion) were examined using lactate dehydrogenase release assays in the presence or absence of MTA (100-300 μM for 3 hours).

caspase 3 activity = assay: NMDA-mediated increase in caspase 3 activity in mixed neuronal-glial culture; type: cell-based, Sprague-Dawley rat; details: NMDA 300 μM, MTA 250 μM or MK-801 10 μM
Protocol: Primary cultures of brain cortical neurons and glia were essentially prepared as described previously (Bruno et al., 2001, Eur. J. Neurosci., 13:1469-1478). The fronto-lateral cortical lobes were dissected out of Sprague-Dawley embryonic day 17 foetuses and were mechanically dissociated in Hanks' balanced solution. The cortical lobes were triturated by aspirating 7-10 times using a Pasteur pipette with a flame-narrowed tip. […]
Cortical neurons or mixed cortical neurons and glia were plated on poly-L-lysine-coated 6-well culture plates and after 7 DIV, cells were treated with vehicle or NMDA (300 μM) for different periods of time. […] Extracts were then centrifuged at 5,000×g for 10 min at 4° C., and protein content was determined by using the BCA protein assay according to the manufacturer instructions. Cell extracts (40 μg of protein) were incubated in reaction buffer (25 mM Hepes, 10% sucrose, 0.1% CHAPS, 10 mM DTT) containing 50 μM fluorescence substrate Z-DEVD-AFC at 37° C. for 1 h. Cleavage of the AFC fluorophore was determined in a spectrofluorometer at excitation wavelength of 400 nm and fluorescence was detected at an emission wavelength of 505 nm. Caspase 3 activity was expressed as units of fluorescence/mg of protein/h (Posadas et al., 2009, Pharm. Res., In press).

Question: Which “OGD/ischemia-induced damage in isolated optic nerve (LDH release)” value (isolated optic nerve) does the source give for `N[C@H](CCCP(=O)(O)O)C(=O)O` [APV, (2R)-amino-5-phosphonovaleric acid] here?
Answer: reduced; also recorded: attenuated

Question: How did the “OGD/ischemia-induced damage in isolated optic nerve (LDH release)” value (isolated optic nerve) turn out when `N#Cc1cc2c(cc1[N+](=O)[O-])=NC(=O)C(=O)N=2` [CNQX, 6-cyano-7-nitro-quinoxaline-2,3-dione] was run?
Answer: reduced; also recorded: attenuated

Question: With `C[C@]12N[C@H](Cc3ccccc31)c1ccccc12` [MK-801, reference compound] as the compound, how does the “protection against NMDA-induced caspase 3 activity” value (caspase 3 activity) read?
Answer: neuroprotective action

Source: US20120083464A1, “NEUROPROTECTIVE PROPERTIES OF 5'-METHYLTHIOADENOSINE” (priority 2009, published 2012)
